According to publication PMC10054552, “Phototoxic Potential of Different DNA Intercalators for Skin Cancer Therapy: In Vitro Screening” (International Journal of Molecular Sciences, 2023):
Like-named read-outs stand apart in the source and are kept apart here.

Tests used:
MET1 cells [1] = experiment: Cytotoxicity (resazurin cell viability) in MET1 cells; type: cell-based, human
Excerpt: (§1) The MET1 SCC cell line (human squamous cell carcinoma) was obtained from Ximbio (London, UK), HaCaT (immortalized human keratinocytes cell line) was obtained from Addexbio (San Diego, CA, USA) and WM983b (human metastatic melanoma cell line) was obtained from Rockland (Pottstown, PA, USA). Cells were maintained in Dulbecco’s Modified Eagle Medium (DMEM) supplemented with 10% (v/v) fetal bovine serum (FBS) for MET1 and HaCaT and 5% (v/v) for WM983b cells, and Pen–Strep (penicillin 100 U/mL and streptomycin 100 µg/mL). Cells were cultivated in an incubator (Sanyo MCO-19AIC-UV) at 37 °C in a 5% CO2 humidified atmosphere.
(§2) First, 96-well plates were seeded with HaCaT and MET1 cells at a density of 20,000 cells/cm² and incubated for 24 h. After that period, the culture medium was replaced by culture medium containing different compounds: MB, AO, GV, QT, CUR, EGCG, PHE, NEO and BIPY. The compounds were diluted in culture medium using a range of concentrations of each compound from 1.25 µM to 320 µM (in quadruplicate). The medium was aspirated from the 96-well plate and replaced by the samples diluted in medium. Cells cultured with complete medium and cells cultured with medium supplemented with 0.2% (v/v) or 10% (v/v) of DMSO were used as negative (NC), solvent (SC) and positive controls (PC), respectively. The plates were incubated for 24 and 48 h, followed by evaluation of cell viability using a colorimetric assay. Cells containing samples were washed with PBS supplemented with calcium and magnesium; then, resazurin solution diluted in DMEM at 0.02 mg/mL was added. The medium containing resazurin was also dispensed in wells without cells, which were used as references. After 3 h of incubation, the absorbance was measured in a microplate reader (ELX800UV, Biotek Instruments) at wavelengths of 570 nm and 600 nm. The corrected absorbance was proportional to cell viability. Propagation of uncertainties was used to calculate the combined standard uncertainty. For the cytotoxicity study using WM983b cells, plates were seeded at a density of 40,000 cells/cm², and cells were treated only with MB and AO.

HaCaT cells = experiment: Cytotoxicity (resazurin cell viability) in HaCaT cells; type: cell-based, human
Excerpt: as §1, §2

[2] = Phototoxicity assay in MET1 cells (irradiation 2.5 J/cm², resazurin); type: cell-based, human; conditions: human, MET1 squamous cell carcinoma cells, MET1 cells, dark
Description: (§3) The […] SCC cell line (human squamous cell carcinoma) was obtained from Ximbio (London, UK), HaCaT (immortalized human keratinocytes cell line) was obtained from Addexbio (San Diego, CA, USA) and WM983b (human metastatic melanoma cell line) was obtained from Rockland (Pottstown, PA, USA). […] Cells were cultivated in an incubator (Sanyo MCO-19AIC-UV) at 37 °C in a 5% CO2 humidified atmosphere. […] The plates were incubated for 24 h, followed by washing with PBS supplemented with calcium and magnesium. Afterwards, complete culture medium without phenol red was added, and the plates were irradiated from above and submitted to a dose of 2.5 J/cm2 of irradiation emitted by different wavelength light sources coupled with a homemade irradiation system created in our laboratory. […] This experiment was performed in an incubator that was able to keep plates in a dark environment; therefore, the dark control plates were protected from any light source, as well as the others, with the exception of the irradiation that each one was submitted to. Plates were incubated for another 24 h, and finally, the resazurin assay was performed as previously described in Section 3.3. For the phototoxicity study using WM983b cells, plates were prepared at a cell density of 40,000 cells/cm2, and cells were treated with MB and AO only.

MET1 cells [3] = experiment: as above; type: cell-based, human; conditions: for phototoxicity in the investigated range: 1.25-40 µM, irradiated vs dark
Description: as §3

WM983b cells [4] = experiment: Cytotoxicity (resazurin cell viability) in WM983b cells; type: cell-based, human; conditions: for IC50: Homo sapiens, 1.25-320 µM
Excerpt: as §1, §2

WM983b cells [5] = experiment: Phototoxicity assay in WM983b cells (irradiation 2.5 J/cm², resazurin); type: cell-based; conditions: Homo sapiens, light or radiation study, treated 24 h
Excerpt: as §1
For the phototoxicity studies, 96-well plates were seeded with MET1 cells at a density of 20,000 cells/cm², incubated overnight and treated for 24 h with MB, AO, GV, QT, CUR, EGCG, PHE, NEO and BIPY diluted in culture medium in a concentration range of 1.25 µM to 40 µM (in sextuplicate). […] Cells cultured with complete medium and cells cultured with medium supplemented with 0.2% (v/v) or 10% (v/v) of DMSO were used as negative (NC), solvent (SC) and positive control (PC), respectively. The plates were incubated for 24 h, followed by washing with PBS supplemented with calcium and magnesium. Afterwards, complete culture medium without phenol red was added, and the plates were irradiated from above and submitted to a dose of 2.5 J/cm² of irradiation emitted by different wavelength light sources coupled with a homemade irradiation system created in our laboratory. These light sources consisted of an equivalent 26 cm UV tubular lamp (254 nm) (Phillips TUV PLS 9W/2PHg) and a tricolor LED lamp (Led Grow Light Bulb E26/E27) with intensity peaks at 457 nm (blue light), 583 nm (yellow light) and 640 nm (red light) provided by 18, 18 and 28 LEDs, respectively, with dimensions of 3 × 3 mm^2. The irradiance values of light at 254, 457, 583 and 640 nm wavelengths were of 16.7, 55, 45 and 25 W/m^2, respectively. This experiment was performed in an incubator that was able to keep plates in a dark environment; therefore, the dark control plates were protected from any light source, as well as the others, with the exception of the irradiation that each one was submitted to. Plates were incubated for another 24 h, and finally, the resazurin assay was performed as previously described in Section 3.3. For the phototoxicity study using WM983b cells, plates were prepared at a cell density of 40,000 cells/cm², and cells were treated with MB and AO only.

[6] = Homo sapiens, MET-1, MET1 cells, 24 h exposure, 1.25-320 µM, read-out: IC50 MET1 Cells 24 h
[7] = Homo sapiens, MET-1, MET1 cells, 48 h exposure, 1.25-320 µM, read-out: IC50 MET1 Cells 48 h
[8] = Homo sapiens, HaCaT cells, 24 h exposure, 1.25-320 µM, read-out: IC50 HaCaT Cells 24 h
[9] = Homo sapiens, HaCaT cells, 48 h exposure, 1.25-320 µM, read-out: IC50 HaCaT Cells 48 h
[10] = Homo sapiens, MET-1, light or radiation study, MET1 cells, treated 24 h, 254 nm light, 2.5 J/cm², read-out: IC50 254 nm
[11] = Homo sapiens, MET-1, light or radiation study, MET1 cells, treated 24 h, 457 nm light, 2.5 J/cm², read-out: IC50 457 nm
[12] = Homo sapiens, MET-1, light or radiation study, MET1 cells, treated 24 h, 583 nm light, 2.5 J/cm², read-out: IC50 583 nm
[13] = Homo sapiens, MET-1, light or radiation study, MET1 cells, treated 24 h, 640 nm light, 2.5 J/cm², read-out: IC50 640 nm
[14] = Homo sapiens, MET-1, light or radiation study, MET1 cells, treated 24 h, dark control (no irradiation), read-out: IC50 Dark
[15] = Homo sapiens, MET-1, MET1 cells, exposure time not given, read-out: IC50 in MET1 cells (summary statement)
[16] = Homo sapiens, MET-1, light or radiation study, MET1 cells, light condition not stated, read-out: IC50 phototoxicity results (summary statement)

| Compound | IC50 (MET1 cells [1]; [6]) | IC50 (MET1 cells [1]; [7]) | IC50 (HaCaT cells; [8]) | IC50 (HaCaT cells; [9]) | IC50 (MET1 cells [3]; [10]) | IC50 (MET1 cells [3]; [11]) | IC50 (MET1 cells [3]; [12]) | IC50 (MET1 cells [3]; [13]) | IC50 (MET1 cells [3]; [14]) | IC50 (MET1 cells [1]; [15]) | further results |
| --- | --- | --- | --- | --- | --- | --- | --- | --- | --- | --- | --- |
| CN(C)c1ccc(C(=C2C=CC(=[N+](C)C)C=C2)c2ccc(N(C)C)cc2)cc1 [Gentian violet, gentian violet] | 3.9 µM | 1.2 µM | 2.8 µM | 0.9 µM | 1.5 µM | 2.7 µM | 1 µM | 1.8 µM | 2.9 µM | – | viability at 24 h, 1.25 µM ([2]; 1.25 µM, read-out: relative cell viability, dark condition, lowest concentration): < 60% |
| CN(C)c1ccc2nc3ccc(=[N+](C)C)cc-3sc2c1 [Methylene blue, methylene blue] | 14.2 µM | 4.2 µM | 11.6 µM | 7.1 µM | 4.3 µM | 6.2 µM | 5 µM | 3.8 µM | 10.9 µM | – | concentration above which the relative cell population falls below 70% (WM983b cells [4]; 24 or 48 h): above 10 µM; IC50 (WM983b cells [4]; 24 h exposure, read-out: IC50 WM983b cells 24 h): 18 µM; IC50 (WM983b cells [4]; 48 h exposure, read-out: IC50 WM983b cells 48 h): 6.1 µM; IC50 (WM983b cells [5]; 640 nm light, 2.5 J/cm², read-out: IC50 irradiated samples (640 nm)): 2.1 µM; IC50 (WM983b cells [5]; without irradiation, read-out: IC50 non-irradiated samples): 7.3 µM |
| Cc1ccc2ccc3ccc(C)nc3c2n1 [Neocuproine, neocuproine] | > 320 µM | > 320 µM | > 320 µM | 159 µM | – | – | – | – | – | – | viability at 24 h ([2]; 1.25-40 µM, read-out: cell viability under dark conditions): < 70% |
| O=C(O[C@@H]1Cc2c(O)cc(O)cc2O[C@@H]1c1cc(O)c(O)c(O)c1)c1cc(O)c(O)c(O)c1 [Epigallocatechin gallate, epigallocatechin gallate] | – | – | – | – | – | – | – | – | – | – | IC50 (MET1 cells [1]; MET1 cells, 24 h exposure, 1.25-320 µM, read-out: IC50 MET1 Cells 24 h): 174 µM; IC50 (MET1 cells [1]; MET1 cells, 48 h exposure, 1.25-320 µM, read-out: IC50 MET1 Cells 48 h): 136 µM; IC50 (HaCaT cells; HaCaT cells, 24 h exposure, 1.25-320 µM, read-out: IC50 HaCaT Cells 24 h): 211 µM; IC50 (HaCaT cells; HaCaT cells, 48 h exposure, 1.25-320 µM, read-out: IC50 HaCaT Cells 48 h): 174 µM; phototoxicity in the investigated range (MET1 cells [3]; MET1 cells): no phototoxicity was observed; IC50 (MET1 cells [3]; MET1 cells, light condition not stated, read-out: IC50 phototoxicity results (summary statement)): > 100 µM; IC50 (MET1 cells [3]; MET1 cells, treated 24 h, 254 nm light, 2.5 J/cm², read-out: IC50 254 nm): 193 µM; IC50 (MET1 cells [3]; MET1 cells, treated 24 h, 457 nm light, 2.5 J/cm², read-out: IC50 457 nm): 222 µM; IC50 (MET1 cells [3]; MET1 cells, treated 24 h, 583 nm light, 2.5 J/cm², read-out: IC50 583 nm): 211 µM; IC50 (MET1 cells [3]; MET1 cells, treated 24 h, 640 nm light, 2.5 J/cm², read-out: IC50 640 nm): 224 µM; IC50 (MET1 cells [3]; MET1 cells, treated 24 h, dark control (no irradiation), read-out: IC50 Dark): 191 µM |
| c1ccc(-c2ccccn2)nc1 [2,2′-bipyridyl] | – | – | – | – | – | – | – | – | – | – | IC50 (MET1 cells [1]; Homo sapiens, MET-1, 24 h, read-out: IC50 MET1 Cells 24 h): 275 µM; IC50 (MET1 cells [1]; Homo sapiens, MET-1, 48 h, read-out: IC50 MET1 Cells 48 h): 97.2 µM; IC50 (MET1 cells [1]; Homo sapiens, MET-1, read-out: IC50 in MET1 cells (summary statement)): > 100 µM; IC50 (HaCaT cells; Homo sapiens, HaCaT, 24 h, read-out: IC50 HaCaT Cells 24 h): 125 µM; IC50 (HaCaT cells; Homo sapiens, HaCaT, 48 h, read-out: IC50 HaCaT Cells 48 h): 57.8 µM; IC50 (MET1 cells [3]; Homo sapiens, MET-1, light or radiation study, 24 h, read-out: IC50 254 nm): 225 µM; IC50 (MET1 cells [3]; Homo sapiens, MET-1, light or radiation study, 24 h, read-out: IC50 457 nm): 171 µM; IC50 (MET1 cells [3]; Homo sapiens, MET-1, light or radiation study, 24 h, read-out: IC50 583 nm): 190 µM; IC50 (MET1 cells [3]; Homo sapiens, MET-1, light or radiation study, 24 h, read-out: IC50 640 nm): 202 µM; IC50 (MET1 cells [3]; Homo sapiens, MET-1, light or radiation study, 24 h, read-out: IC50 Dark): 228 µM; IC50 (MET1 cells [3]; Homo sapiens, MET-1, light or radiation study, read-out: IC50 phototoxicity results (summary statement)): > 100 µM; phototoxicity in the investigated range (MET1 cells [3]; MET1 cells): did not show phototoxicity |
| COc1cc(/C=C/C(=O)CC(=O)/C=C/c2ccc(O)c(OC)c2)ccc1O [Curcumin, curcumin] | 26 µM | 7.2 µM | 9 µM | 11.7 µM | 9.3 µM | 10.7 µM | 11.5 µM | 11 µM | 15.5 µM | < 30 µM | IC50 (MET1 cells [3]; Homo sapiens, MET-1, light or radiation study, MET1 cells, 640, 583, 457 and 254 nm, 2.5 J/cm², read-out: IC50 values under irradiation (all wavelengths together)): < 11.5 µM; IC50 (MET1 cells [3]; [16]): < 20 µM |
| c1cnc2c(c1)ccc1cccnc12 [1,10-phenanthroline] | 124 µM | 7.7 µM | 35.2 µM | 5.9 µM | 6 µM | 4.9 µM | 6.8 µM | 4.8 µM | 7.4 µM | > 100 µM | – |
| O=c1c(O)c(-c2ccc(O)c(O)c2)oc2cc(O)cc(O)c12 [Quercetin, quercetin] | > 320 µM | 110 µM | > 320 µM | 315 µM | 205 µM | 288 µM | 269 µM | 340 µM | 230 µM | > 100 µM | IC50 (MET1 cells [3]; [16]): > 100 µM |
